# Experimental data reported in US20240139125A1 (INDUSTRIAL COOPERATION FOUNDATION JEONBUK NATIONAL …, priority 2020, published 2024).
# Entries after “also recorded” stand apart in the source; their conditions may differ.
# Experiments:
# [1] = test system: AKT serine phosphorylation (S473); assay: AKT phosphorylation by Western blotting; format: cell-based
# Experimental: This is AKT signaling key to cancer cell growth, and BIA and its analogues tend to inhibit it. Only representative experimental results were presented. Data were expressed as mean±SD. After one-way ANOVA, Tukey's post hoc test is conducted.
# After cell recovery, cell lytic buffer (10 mM Tris-Cl (pH 7.4), 5 mM EDTA, 130 mM NaCl, 1% Triton X-100) and protease inhibitor mix protease inhibitor cocktail (protease inhibitor cocktail and phosphatase inhibitor cocktail) were added and left at 4° C. for 30 minutes. After breaking the cells with ultrasound, they were centrifuged at 13,000× g at 4° C. for 30 minutes, and then the supernatant was taken, and the concentration was quantified using a protein quantification kit (Bio-Rad Laboratories, Hercules, CA, USA). 20 ug of the obtained protein was electrophoresis with polyacrylamide gel electrophoresis (SDS-PAGE) followed by electrotransfer to PVDF membrane (Bio-Rad). The membrane was blocked at room temperature for 1 hour with a TBS-T solution (20 mM Tris (pH 7.5), 137 mM NaCl, 0.05% Triton X-100) containing 5% skim milk. Then, after switching to a solution containing the primary antibody, it was reacted at 4° C. The membrane after the reaction was washed three times with TBS-T solution, reacted with a secondary antibody, and then luminesced using an ECL kit and autoradiography. […]
# [2] = test system: BI-1 (TMBIM6); assay: TMBIM6-GCaMP3 fluorescence, calcium released through BI-1; format: cell-based; details: HT1080 cells expressing TMBIM6-GCaMP3, BIA 10 μM, over time
# [3] = test system: tumors derived from HT1080 cells; assay: Xenograft in nude mice; format: in vivo; details: 1 mg/kg BIA, 5 days a week, 25 days
# Experimental: Mice purchased 20-25 g of BALBc/Nude and conducted experiments after 1 week of preliminary breeding to adapt to the laboratory environment. This experiment was approved by the Animal Experiment Ethics Committee of Chonbuk National University (CBNU 201 5-064, CBNU 2016-56) and was carried out according to standard work instructions, and the conditions in the breeding room were kept constant temperature and relative humidity, a 12-hour contrast cycle, and water and feed were freely consumed. Experimental animals are transplanted subcutaneously with 5×10^6 cells per mouse using HT1080 cell line and MDA-MB-231 cell line, and after 7-10 days, mice forming tumor sizes of 100 mm^3 are randomly divided into control and experimental groups. […] The tumor size was measured with a caliper and calculated using the following formula: […]
# In culture, exponentially growing BI-1 (TMBIM6) knockout and WT HT1080 cells were treated with trypsin and quantified through trypan blue staining differentiation, and 3-5×10^6 cells were resuspended in 0.1 ml PBS. […]
# After 25-28 days, the mice were euthanized, solid tumors were incised, and tumor volumes were recorded. Tumor size was measured with a caliper. The tumor volume (mm^3) was calculated by the formula [(shortest diameter)2×longest diameter]/2. […]
smiles,measurement,setting,value
"Nc1ccccc1C(=O)/C=C/c1cccc([N+](=O)[O-])c1 [BIA, 2E-1-2-Aminophenyl-3-3-nitrophenyl-2-propen-1-one]",phosphorylation of AKT,"[1]; BIA-treated cells, following loss of BI-1/mTORC2/ribosome binding",complete reduction
same,AKT serine phosphorylation S473,"[1]; HT1080 cells, 1 or 2 μM",inhibited
same,phosphorylation of AKT,"[1]; MDA-MB-231 cells, 1 or 2 μM",equally inhibited
same,phosphorylation of AKT,"[1]; SKBR3 cells, 1 or 2 μM",equally inhibited
same,BI-1-GCaMP3 fluorescence intensity,[2],decreasing pattern; also recorded: decreased over time
same,tumor growth,[3],significantly impaired
